pKd: −log10 of the molar value.
Target: T1, ATP6V1C1 (Homo sapiens, UniProt P21283)
T1 construct: human wild-type ATP6V1C1, N-terminal 6xHis tag, modified pET30a, expressed in E. coli BL21 (DE3)
Experiment: ITC with purified recombinant protein; supported by CETSA/ITDRF (half-maximal destabilization […]) and TPP
Assay type: binding

T1 sequence (P21283 2-382): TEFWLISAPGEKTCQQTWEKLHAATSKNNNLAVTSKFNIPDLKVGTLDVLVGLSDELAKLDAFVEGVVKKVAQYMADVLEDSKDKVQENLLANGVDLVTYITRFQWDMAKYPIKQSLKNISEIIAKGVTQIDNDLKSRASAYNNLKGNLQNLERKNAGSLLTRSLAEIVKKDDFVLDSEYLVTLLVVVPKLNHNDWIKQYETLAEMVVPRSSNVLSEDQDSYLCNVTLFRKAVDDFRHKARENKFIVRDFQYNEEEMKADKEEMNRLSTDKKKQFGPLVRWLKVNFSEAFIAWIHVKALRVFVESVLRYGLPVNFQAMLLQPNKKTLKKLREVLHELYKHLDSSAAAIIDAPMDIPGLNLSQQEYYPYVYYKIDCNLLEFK

Cc1c([C@H](C)[C@@H]2NC[C@@H](C)C[C@H]2O)ccc2c1C[C@H]1[C@H]2CC=C2C[C@@H](O)CC[C@@]21C [VAM, veratramine]
pKd: 5.93

Reference: article PMC12080387, “Integrated thermal proteome and thermal proximity co-aggregation profiling identifies ATP6V1C1 as a novel anti-cancer drug target” (International Journal of Biological Sciences, 2025)
